Measurements reported in patent publication US7736649B2, “Methods of inhibiting human immunodeficiency virus infection through the administration of synergistic combinations of anti-CCR5 monoclonal antibodies, fusion inhibitors, and CD4-GP120 binding inhibitors” (priority 2000, dated 2010).
Read-outs that look alike come from different tables or passages of the source.

Tests used:
[1] = tested on: HIV-1JR-FL env-mediated membrane fusion
Procedure: HIV-1 envelope-mediated fusion between HeLa-EnvJR-FL and PM1 cells was detected using a Resonance Energy Transfer (RET) assay.
HIV-1 inhibition data were analyzed according to the Combination Index method of Chou and Talay. The data are modeled according to the median-effect principle, which can be written f=1/[1+(K/c)^m] (1) where f is the fraction affected/inhibited, c is concentration, K is the concentration of agent required to produce the median effect, and m is an empirical coefficient describing the shape of the dose-response curve. Equation (1) is a generalized form of the equations describing Michaelis-Menton enzyme kinetics, Langmuir adsorption isotherms, and Henderson-Hasselbalch ionization equilibria, for which m=1 in all cases. In the present case, K is equal to the IC50 value. K and m are determined by curve-fitting the dose-response curves.
(§1) After the best-fit parameters for K and m are obtained for the experimental agents and their combination, Equation (1) is rearranged to allow for calculation of c for a given f. The resulting table of values (e.g., Figure X) is used to calculate the Combination Index (CI) using the equation CI=c1m/c1+c2m/c2+c1mc2m/c1c2 (2) where • c1=concentration of compound 1 when used alone • c2=concentration of compound 2 when used alone • C1m=concentration of compound 1 in the mixture • C2m=concentration of compound 2 in the mixture
All concentrations are those required to achieve a given degree of inhibition. Equation (2) is used when the molecules are mutually nonexclusive, i.e., have different sites of action. Since this is the likely scenario for inhibitors of HIV-1 attachment and gp41 fusion intermediates, Equation (2) was used for all Combination Index calculations. Mutually nonexclusive calculations provide a more conservative estimate of the degree of synergy that mutually exclusive calculations, for which the c1mc2m/c1c2 term is dropped. CI<1 indicates synergy, CI=1 indicates purely additive effects, and CI>1 indicates antagonism. In general, CI values are most relevant at the higher levels of inhibition that are required to achieve a measurable clinical benefit.
as §1, with “c2 concentration” for “c2=concentration”, “c1m=concentration” for “C1m=concentration”, “c2m=concentration” for “C2m=concentration”
HIV-1 cell-cell fusion assays Cell-cell fusion mediated by the envelope glycoproteins of HIV-1JR-FL and HIV-1LAI was measured using a fluorescence resonance energy transfer (RET) assay, which measures fusion between HeLa cells expressing HIV-1 envelope glycoproteins and CD4^+ target cells. The T cell lines PM1 and SupT1 were used as target cells in this study. PM1 endogenously express CCR5 and CXCR4. […] The RET signal is directly related to the extent of membrane fusion.
(§2) Quantitative analysis of drug interactions Inhibition data from three independent assays were averaged and analyzed for cooperative effects using the Combination Index (CI) method. In all analyses, PRO 542 and T-20 were assumed to act non-competitively, which leads to a more conservative estimate of synergy. CI values of <0.9 (or >1.1) were taken to represent meaningful synergy (or antagonism). Dose reductions were calculated as the ratio of drug concentrations required for inhibition when the drug is used, alone or in combination.
An HIV-1 cell-cell fusion assay is described in FIG. 18. Such assay is a Resonance Energy Transfer (RET) assay of HIV-1 membrane fusion.

[2] = tested on: HIV-1JR-FL (R5)
Procedure: HIV-1 virus-cell fusion assays NLluc^+env^− viruses were complemented in trans by the envelope glycoproteins (Env) from HIV-1JR-FL (R5) or HIV-1DH123 (R5X4). HeLa-CD4^+CCR5^+ cells were infected with chimeric reporter viruses containing 50-100 ng/ml of p24 in the presence or absence of drugs. Cells were washed and fed fresh drug-containing media at 2 h and drug-free media at 12 h. After 72 h, cell lysates were assayed for luciferase activity.
as §2
An HIV-1 virus-cell fusion assay is described in FIG. 15. In a single-cycle HIV-1 entry assay, Env-Luc+ HIV reporter viruses were prepared as described. The viruses are complemented with gp120/gp41 from an HIV strain of interest and thus are capable of fusing with target cells that express CD4 and fusion coreceptors, resulting in the introduction of the viral genes into the cell. Because the viruses encode the luciferase reporter enzyme rather than HIVenv, infection leads to the production of luciferase rather than new viral particles. The amount of luciferase is measured 72 hours post-infection using standard methods.

[3] = tested on: HIV-1 fusion intermediates; conditions: cited from earlier work
[4] = tested on: HIV-1; conditions: cited from earlier work
[5] = cells and inhibitor co-incubated 2 h at 25° C. prior to washing and warming to 37° C., data not shown

enfuvirtide
concentration of the agent contained in the combination at 95% inhibition ([1]; 25:1 CD4-IgG2:T-20 mass ratio combination): 0.044 µg/mL | dose reduction (alone v. in combination) ([1]; 95% inhibition, 25:1 mass ratio): 5 fold | activity in cell-cell preincubation assay, in words ([1]; HeLa-Env and PM1 cells co-incubated 2 h at 25° C., inhibitor added, warmed to 37° C.): fully active | concentration required for inhibition of viral entry by 95% ([1]; agent used alone, or total of 25:1 mass ratio combination): 0.21 µg/mL | IC90 ([1]; alone, or total of 1:10 molar PRO 542:T-20 combination): 22 nM | K (concentration producing the median effect, equal to IC50) ([1]; best-fit median-effect parameter, 4 h incubation, mean of three experiments): 0.017 µg/mL | activity, in words [1, 5]: essentially inactive | fold increase in IC50 [1, 5]: > 250 fold | activity when pre-incubated with PM1 cells prior to washing ([1]; data not shown): Neither drug demonstrated activity | activity in washout assay, in words ([1]; drug pre-incubated with HeLa-Env cells, washed, then PM1 cells added): essentially inactive | IC90 ([1]; read-out: concentration of the agent in the combination at IC90, 1:10 molar combination): 4.9 nM | dose reduction (fold less drug needed) ([2]; 90-95% inhibition, 1:2 molar): ~20 fold | IC90 ([2]; read-out: IC90 (concentration required for 90% inhibition), alone, or total of 1:2 molar PRO 542:T-20 combination): 45 nM | IC90 ([2]; read-out: concentration of the agent in the combination at IC90, 1:2 molar combination): 2.6 nM | inhibition ([3]; added at 75 minutes): < 10% | inhibition ([3]; added within the first 15 minutes of cell mixing): 100% | pK, in words ([4]; Phase I/II clinical trials): supports twice daily subcutaneous dosing | tolerability ([4]; Phase I/II clinical trials): good tolerability | viral load, in words ([4]; Phase I/II clinical trials): clinically significant dose-dependent reductions | reduction of plasma HIV RNA levels ([4]; Phase I/II): ≤ 2 logs | reductions in HIV RNA ([4]; single agent, Phase I/II trials): 1-2 log10
